Laboratory results reported in patent US20060069132A1, “Azolecarboxamide herbicides” (priority 2004, published 2006).

Legend:
cocklebur = test: Test B pre-/postemergence herbicide test; type: in vivo, Xanthium strumarium; conditions: for Cocklebur plant response rating: postemergence, scale 0 (no effect) to 100 (complete control)
Method in brief: (§1)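 Greenhouse pot assay with simultaneous preemergence (treated seed) and postemergence (2–18 cm seedlings) applications of surfactant-containing, non-phytotoxic solvent formulations. Response scored visually 13–15 days later on a 0–100 scale, 100 meaning complete control.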

wheat = test: Test B postemergence herbicide test; type: in vivo, Triticum aestivum; parameters: key to Wheat plant response rating: 0 = no effect, 100 = complete control; conditions: postemergence
Method in brief: (§2)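 Scale 0–100: zero equals no visible effect, 100 complete control, judged by eye relative to controls. Timing: 13 to 15 days in greenhouse post-treatment. Growth stage at spraying: two leaves (paddy) or one to four leaves, 2–18 cm (postemergence).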

velvetleaf = test: Test B pre-/postemergence herbicide test; type: in vivo, Abutilon theophrasti; conditions: for Velvetleaf plant response rating: postemergence
Method in brief: (§3)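 Flooded paddy rice and barnyardgrass were treated at the 2-leaf stage; upland plantings received compound either on sown seed or on 1- to 4-leaf seedlings. All were kept 13–15 days in a greenhouse and scored visually, 0–100, relative to untreated plants.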

barnyardgrass [1] = test: Test B flooded paddy test; type: in vivo, Echinochloa crus-galli; conditions: 1000 g ai/ha, scale 0 to 100 (0 no effect, 100 complete control)
Method in brief: (§4)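 Greenhouse test; postemergence application to plants at 1–4 leaves (2–18 cm); paddy species at 2 leaves; evaluated visually vs controls at 13–15 days; scale 0–100 (100 = complete control).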

morningglory = test: Test B pre-/postemergence herbicide test; type: in vivo, Ipomoea coccinea; conditions: for Morningglory plant response rating: postemergence
Method in brief: as §1

lambsquarters = test: Test B pre-/postemergence herbicide test; type: in vivo, Chenopodium album; conditions: for Lambsquarters plant response rating: postemergence
Method in brief: as §3

Surinam grass = test: Test B pre-/postemergence herbicide test; type: in vivo, Urochloa decumbens; conditions: for Surinam Grass plant response rating: postemergence
Method in brief: as §3

rice [2] = test: Test B pre-/postemergence herbicide test; type: in vivo, Oryza sativa; conditions: 0 = no effect, 100 = complete control, preemergence
Method in brief: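 Evaluation is visual, comparing treated with control plants on a scale where 0 means no effect and 100 means full control. Treatments were preemergence, or postemergence on seedlings 2–18 cm tall, and held 13–15 days in the greenhouse.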

ducksalad = test: Test B flooded paddy test; type: in vivo, Heteranthera limosa; conditions: 1000 g ai/ha, scale 0 to 100 (0 no effect, 100 complete control)
Method in brief: as §4

[3] = tested on: small flower umbrella sedge; test: Test B flooded paddy test; type: in vivo, Cyperus difformis; conditions: 1000 g ai/ha, scale 0 to 100 (0 no effect, 100 complete control)
Method in brief: as §4

corn = test: Test B pre-/postemergence herbicide test; type: in vivo, Zea mays; conditions: for Corn plant response rating: postemergence
Method in brief: as §3

wild oat = test: Test B postemergence herbicide test; type: in vivo, Avena fatua; conditions: postemergence
Method in brief: as §2

barnyardgrass [4] = test: Test B pre-/postemergence herbicide test; type: in vivo, Echinochloa crus-galli; conditions: for Barnyardgrass plant response rating: postemergence, scale 0 (no effect) to 100 (complete control)
Method in brief: as §1

giant foxtail = test: Test B pre-/postemergence herbicide test; type: in vivo, Setaria faberi; conditions: for Foxtail, Giant plant response rating: postemergence
Method in brief: as §3

blackgrass = test: Test B postemergence herbicide test; type: in vivo, Alopecurus myosuroides; conditions: postemergence, visual rating, scale 0 (no effect) to 100 (complete control)
Method in brief: as §4

rice [5] = test: Test B flooded paddy test; type: in vivo, Oryza sativa; conditions: 1000 g ai/ha, scale 0 to 100 (0 no effect, 100 complete control)
Method in brief: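 After treating 2-leaf paddy plants or 2–18 cm postemergence plants (1 to 4 leaves) with formulated chemical, researchers kept them in a greenhouse for 13–15 days. Effects were judged visually versus controls: 0 indicates none, 100 total control.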

pigweed = test: Test B pre-/postemergence herbicide test; type: in vivo, Amaranthus retroflexus; conditions: for Pigweed plant response rating: postemergence
Method in brief: as §3

large crabgrass = test: Test B pre-/postemergence herbicide test; type: in vivo, Digitaria sanguinalis; conditions: for Crabgrass, Large plant response rating: postemergence
Method in brief: as §3

[6] = 125 g ai/ha, 0 = no effect, 100 = complete control, preemergence
[7] = 500 g ai/ha, visual rating, 0 = no effect, 100 = complete control, preemergence
[8] = 125 g ai/ha, visual rating, scale 0 (no effect) to 100 (complete control)
[9] = 500 g ai/ha, scale 0 to 100, 0 is no effect, 100 is complete control

**Q.** With CCn1nc(C(C)(C)C)cc1C(=O)Nc1cccc(C(=O)N(C)OC)n1 [Compound 246] as the compound, how does the “Cocklebur plant response rating (0 to 100 scale)” value (cocklebur; [6]) read?
**A.** 0

**Q.** What about the “Plant response rating, Cocklebur” value (cocklebur; [7]) of the same compound?
**A.** 0

**Q.** And the “Cocklebur plant response rating” value (cocklebur; 125 g ai/ha, visual rating)?
**A.** 20

**Q.** What about the “Cocklebur plant response rating” value (cocklebur; 500 g ai/ha, visual rating) of the same compound?
**A.** 30

**Q.** And the “Wheat plant response rating” value (wheat; [8])?
**A.** 0

**Q.** What about the “Wheat plant response rating” value (wheat; [9]) of the same compound?
**A.** 30

**Q.** What about the “Velvetleaf plant response rating (0 to 100 scale)” value (velvetleaf; [6]) of the same compound?
**A.** 60

**Q.** What about the “Plant response rating, Velvetleaf” value (velvetleaf; [7]) of the same compound?
**A.** 90

**Q.** And the “Velvetleaf plant response rating” value (velvetleaf; [8])?
**A.** 30

**Q.** What about the “Velvetleaf plant response rating” value (velvetleaf; [9]) of the same compound?
**A.** 60

**Q.** What about the “Barnyardgrass plant response rating” value (barnyardgrass [1]) of the same compound?
**A.** 50

**Q.** What about the “Morningglory plant response rating (0 to 100 scale)” value (morningglory; [6]) of the same compound?
**A.** 0

**Q.** What about the “Plant response rating, Morningglory” value (morningglory; [7]) of the same compound?
**A.** 10

**Q.** What about the “Morningglory plant response rating” value (morningglory; [8]) of the same compound?
**A.** 0

**Q.** And the “Morningglory plant response rating” value (morningglory; [9])?
**A.** 10

**Q.** What about the “Lambsquarters plant response rating (0 to 100 scale)” value (lambsquarters; [6]) of the same compound?
**A.** 70

**Q.** And the “Plant response rating, Lambsquarters” value (lambsquarters; [7])?
**A.** 100

**Q.** And the “Lambsquarters plant response rating” value (lambsquarters; [8])?
**A.** 50

**Q.** And the “Lambsquarters plant response rating” value (lambsquarters; [9])?
**A.** 70

**Q.** And the “Surinam Grass plant response rating (0 to 100 scale)” value (Surinam grass; [6])?
**A.** 30

**Q.** And the “Plant response rating, Surinam Grass” value (Surinam grass; [7])?
**A.** 80

**Q.** And the “Surinam Grass plant response rating” value (Surinam grass; [8])?
**A.** 20

**Q.** What about the “Surinam Grass plant response rating” value (Surinam grass; [9]) of the same compound?
**A.** 20

**Q.** What about the “Rice plant response rating (0 to 100 scale)” value (rice [2]; 125 g ai/ha) of the same compound?
**A.** 40

**Q.** What about the “Plant response rating, Rice” value (rice [2]; 500 g ai/ha, visual rating) of the same compound?
**A.** 70

**Q.** And the “Ducksalad plant response rating” value (ducksalad)?
**A.** 50

**Q.** What about the “Sedge, Umbrella plant response rating” value [3] of the same compound?
**A.** 50

**Q.** And the “Corn plant response rating (0 to 100 scale)” value (corn; [6])?
**A.** 0

**Q.** What about the “Plant response rating, Corn” value (corn; [7]) of the same compound?
**A.** 20

**Q.** What about the “Corn plant response rating” value (corn; [8]) of the same compound?
**A.** 0

**Q.** And the “Corn plant response rating” value (corn; [9])?
**A.** 10

**Q.** And the “Oat, Wild plant response rating” value (wild oat; [8])?
**A.** 10

**Q.** What about the “Oat, Wild plant response rating” value (wild oat; [9]) of the same compound?
**A.** 20

**Q.** And the “Barnyardgrass plant response rating (0 to 100 scale)” value (barnyardgrass [4]; [6])?
**A.** 60

**Q.** What about the “Plant response rating, Barnyardgrass” value (barnyardgrass [4]; [7]) of the same compound?
**A.** 90

**Q.** And the “Barnyardgrass plant response rating” value (barnyardgrass [4]; 125 g ai/ha, visual rating)?
**A.** 30

**Q.** What about the “Barnyardgrass plant response rating” value (barnyardgrass [4]; 500 g ai/ha, visual rating) of the same compound?
**A.** 70

**Q.** What about the “Foxtail, Giant plant response rating (0 to 100 scale)” value (giant foxtail; [6]) of the same compound?
**A.** 30

**Q.** What about the “Plant response rating, Foxtail, Giant” value (giant foxtail; [7]) of the same compound?
**A.** 90

**Q.** And the “Foxtail, Giant plant response rating” value (giant foxtail; [8])?
**A.** 30

**Q.** What about the “Foxtail, Giant plant response rating” value (giant foxtail; [9]) of the same compound?
**A.** 30

**Q.** What about the “Blackgrass plant response rating” value (blackgrass; 125 g ai/ha) of the same compound?
**A.** 0

**Q.** And the “Blackgrass plant response rating” value (blackgrass; 500 g ai/ha)?
**A.** 0

**Q.** And the “Rice plant response rating” value (rice [5])?
**A.** 60

**Q.** What about the “Pigweed plant response rating (0 to 100 scale)” value (pigweed; [6]) of the same compound?
**A.** 100

**Q.** What about the “Plant response rating, Pigweed” value (pigweed; [7]) of the same compound?
**A.** 100

**Q.** And the “Pigweed plant response rating” value (pigweed; [8])?
**A.** 50

**Q.** And the “Pigweed plant response rating” value (pigweed; [9])?
**A.** 60

**Q.** And the “Crabgrass, Large plant response rating (0 to 100 scale)” value (large crabgrass; [6])?
**A.** 70

**Q.** What about the “Plant response rating, Crabgrass, Large” value (large crabgrass; [7]) of the same compound?
**A.** 100

**Q.** And the “Crabgrass, Large plant response rating” value (large crabgrass; [8])?
**A.** 10

**Q.** What about the “Crabgrass, Large plant response rating” value (large crabgrass; [9]) of the same compound?
**A.** 20
